One assay concerns the target peptide P2. Put plainly: Apparent KD of lead quencher dyes with peptide P2 (quenching of pyrene fluorescence). The assay is classed as binding. Conditions: with 5 μM pyrene-labeled peptide P2, 100 mM Tris HCl pH 7.5, inner filter corrected. The procedure: KD values were acquired for the set of the ten lead quenchers with peptide P2, in order to obtain a target range for the quencher:peptide ratios to be employed in the subsequent assays (vide infra). These apparent KD values were determined using the quenching of pyrene fluorescence as a barometer of peptide/quencher complex stability. […] An inner filter effect (at high dye concentrations) was corrected as previously described (Levine (1977) Clin. Chem. 23:2292-301).

The target in a further assay is peptide P5. As to the kind of experiment: Apparent KD of lead quencher/peptide pair, peptide P5. The assay is classed as binding.
Assay [1] has as its target phosphorylated P5 peptide. Put plainly: Apparent KD of quencher with phosphorylated P5 peptide. Format: binding.
Procedure: (§1) Varying concentrations of 10 dyes (FIG. 2 Panel B), ranging from 0.5-500 μM, were added to 5 μM pyrene-labeled P2 peptide in 100 mM Tris HCl pH 7.5 buffer (96 well plates). […] After correcting for the inner filter effect, the percentage of quench was plotted against the concentration of the dye. A nonlinear regression analysis fit of the data to the rectangular hyperbola model using the Sigma Plot version 8.02 software was used to obtain apparent KD values.
Assay [2] addresses T1, PKA (Mus musculus, UniProt P05132). As to the kind of experiment: Control: phosphorylation-induced fluorescence change of pyrene peptides without quenching dye, with 14-3-3τ. The assay is classed as biochemical, murine. More on the design: made in house. Conditions: absence of quenching dye, ATP, 5 μM peptide.
For assay [3], the target named is T1, PKA. Put plainly: Fluorescence increase of covalently quenched peptides P13, P14 upon phosphorylation by PKA. The assay is classed as biochemical. Conditions: for change in fluorescence upon phosphorylation by PKA: in the absence of 14-3-3. The procedure:
Pyrene-substituted peptides P13 (FIG. 15 Panel A, SEQ ID NO:21) and P14 (FIG. 15 Panel B, SEQ ID NO:22) were synthesized. […] The assay was performed with a total volume of 200 μL and was initiated with the addition of PKA enzyme. […]

In a further assay the target is peptide P9. As to the kind of experiment: Apparent KD of lead quencher/peptide pair, peptide P9. Particulars: read-out: Apparent KD; with peptide P9.

Square brackets hold non-standard residues; d marks the D form. Peptide text beside a SMILES is read from it. * marks the point of attachment. Acetyl(1-pyrenyl) = O=C(Cc1ccc2ccc3cccc4ccc1c2c34)*; Carminic acid = quencher bound covalently; Ala(Pyr) = not defined here; Dap = NC[C@H](N)C(=O)O

Procedure for peptide P5: as §1
Procedure for peptide P9: as §1

As for `Cc1cc(-c2ccc(/N=N/c3ccc4c(S(=O)(=O)O)cc(S(=O)(=O)O)c(N)c4c3O)c(C)c2)ccc1/N=N/c1ccc2c(S(=O)(=O)O)cc(S(=O)(=O)O)c(N)c2c1O` [D3, Evans Blue], the Kd on peptide P2 amounted to 2.8 ± 0.8 µM. In the case of `Nc1c(S(=O)(=O)O)cc(Nc2ccc(Nc3nc(Cl)nc(Nc4cccc(S(=O)(=O)O)c4)n3)c(S(=O)(=O)O)c2)c2c1C(=O)c1ccccc1C2=O` [D6, Reactive Blue 2], the Kd on peptide P2 was found to be 19.6 ± 3.4 µM. For `O=[N+]([O-])c1ccc2c(N=Nc3ccc4ccccc4c3O)c(O)cc(S(=O)(=O)[O-])c2c1.[Na+]` [D18, Eriochrome Black T], the Kd at peptide P2 was 14.3 ± 3.3 µM.

On to `Nc1ccc(N=Nc2ccc(-c3ccc(N=Nc4c(S(=O)(=O)[O-])cc5cc(S(=O)(=O)[O-])c(N=Nc6ccccc6)c(O)c5c4N)cc3)cc2)c(N)c1.[Na+].[Na+]` [D34, Chlorazol Black E], for which, on peptide P2, the Kd came out at 7.7 ± 1.5 µM. Take `O=S(=O)([O-])c1ccc(N=Nc2ccc(N=Nc3c(O)c(S(=O)(=O)[O-])cc4cc(S(=O)(=O)[O-])ccc34)c(S(=O)(=O)[O-])c2)cc1.[Na+].[Na+].[Na+].[Na+]` [D42, Ponceau S]: the Kd at peptide P2 amounted to 11.2 ± 2.7 µM.

With `O=C([O-])c1c(Cl)c(Cl)c(Cl)c(Cl)c1-c1c2cc(I)c(=O)c(I)c-2oc2c(I)c([O-])c(I)cc12.[Na+].[Na+]` [D43, Rose Bengal], the Kd at peptide P2 worked out at 7.5 ± 1.6 µM; on peptide P5 (with peptide P5) it was 0.4 ± 0.03 µM; on peptide P5 (with unphosphorylated P5 peptide), 0.4 ± 0.03 µM; in assay [1], 0.21 ± 0.04 µM.

Turning to `O=C(O)c1nn(-c2ccc(S(=O)(=O)O)cc2)c(O)c1N=Nc1ccc(S(=O)(=O)O)cc1` [D47, Tartrazine], the Kd on peptide P2 turned out to be 15 ± 2.1 µM. Consider `Cc1cc(-c2ccc(/N=N/c3c(S(=O)(=O)O)cc4cc(S(=O)(=O)O)cc(N)c4c3O)c(C)c2)ccc1/N=N/c1c(S(=O)(=O)O)cc2cc(S(=O)(=O)O)cc(N)c2c1O` [D48, Trypan Blue], for which, on peptide P2, the Kd amounted to 11.9 ± 3.6 µM.

Turning to `CC(=O)NCC(=O)N[C@@H](CCCNC(=N)N)C(=O)N[C@H](C(=O)NCC(=O)N[C@@H](CCCNC(=N)N)C(=O)N[C@@H](CCCNC(=N)N)C(=O)N[C@@H](CNC(=O)Cc1ccc2ccc3cccc4ccc1c2c34)C(=O)N[C@@H](CO)C(=O)N[C@@H](Cc1ccc(O)cc1)C(=O)N1CCC[C@H]1C(N)=O)[C@@H](C)O` [P2, Ac-GRTGRRDap(Pyr)SYP-amide] (Ac-GRTGRR[Dap](Acetyl(1-pyrenyl))SYP-NH2), the “% Fluorescence Enhancement” value at PKA [2] came to 51%. Still for that read-out and setting: the figure for `C[C@@H](O)[C@H](NC(=O)[C@H](CCCNC(=N)N)NC(=O)CNC(=O)CCCCCNC(=O)Cc1ccc2ccc3cccc4ccc1c2c34)C(=O)NCC(=O)N[C@@H](CCCNC(=N)N)C(=O)N[C@@H](CCCNC(=N)N)C(=O)N[C@@H](Cc1ccccc1)C(=O)N[C@@H](CO)C(=O)N[C@@H](Cc1ccc(O)cc1)C(=O)N1CCC[C@H]1C(N)=O` [P9] is 48%; for Ac-GRDap(Pyr)GRRFSYP-amide [P4] it is 40%. Same read-out and setting: the value for Ac-GRTDap(Pyr)RRFSYP-amide [P3] was 19%; that for Ac-GRTGRRFSDap(Pyr)P-amide [P1] was 0%. Regarding “AcGAla(Pyr)TGRRDap(Carminic acid)SLPA-amide (Ac-G[Ala(Pyr)]TGRR[Dap](Carminic acid)SLPA-NH2; reading uncertain) [P14]”, the “change in fluorescence upon phosphorylation by PKA” value with PKA [3] is on record as “No significant change in fluorescence”.

Regarding “AcGAla(Pyr)TGRRDap(Reactive Blue 2)SLPA-amide [P13]”, the “change in fluorescence upon phosphorylation by PKA” value on PKA [3] is recorded as “No significant change in fluorescence”. For the same compound, at PKA [3] (in the presence of 14-3-3τ (2.1 μM)), the “increase in fluorescence upon phosphorylation by PKA” value is given as 1.5-2.3 fold. In the case of Aniline Blue WS [D27], the Kd stood at 0.6 ± 0.03 µM at peptide P9 and 18.1 ± 2.6 µM on peptide P2.
